Paper PMC10111423, “Antimalarial Imidazopyridines Incorporating an Intramolecular Hydrogen Bonding Motif: Medicinal Chemistry and Mechanistic Studies” (ACS Infectious Diseases, 2023)
In brackets after ≈: the same amount, converted by molar mass. Read-outs that look alike come from different tables or passages of the source.

Columns and labels:
[1] = test system: chloroquine-sensitive (NF54) strain of P. falciparum; test: In vitro asexual blood-stage antiplasmodium pLDH assay, NF54 strain; format: cell-based; settings: Plasmodium falciparum
Method: (§1) Compounds were screened against multi-drug-resistant (K1) and sensitive (NF54) strains of P. falciparum in vitro using a parasite lactate dehydrogenase assay (pLDH) (the method is described fully in the Supporting Information). […]
(§2) In vitro Asexual Blood Stage Antiplasmodium Assay
(§3) Parasites were cultured as per the method of Trager and Jensen,1 with modifications. IC50 values were determined using parasite lactate dehydrogenase as a marker for survival (Makler […]
(§4) et al, 1993). The test samples were prepared to a 10 mmol/L stock solution in 100% DMSO.
(§5) Samples were tested as a suspension if not completely dissolved. Further dilutions to the desired starting concentration were freshly prepared in growth media on each occasion of the experiment. The standard antimalarial drugs chloroquine (CQ) and artesunate (Arts) were used as the reference drug in all experiments. A full dose-response was performed for all compounds in a 96-well plate to determine the concentration inhibiting 50% of parasite growth (IC50– value). Test samples were tested at a starting concentration of 6mmol/L, which was then serially diluted 2-fold in growth medium to generate the tested concentration range. The same dilution technique was used for all samples. CQ and Arts were tested from a starting concentration of 1µg/mL. The highest concentration of solvent to which the parasites were exposed was <0.1% and has no measurable effect on the parasite viability (data not shown).
(§6) The assay plate was incubated at 37 °C for 72h in a sealed gas chamber under 3% O2 and 4% CO2 with the balance being N2. After 72h, the wells in the assay plate were gently resuspended, and 15µL from each well was transferred to a duplicate plate containing 100µL of Malstat reagent and 25µL of nitroblue tetrazolium solution in each well. Plates were left to develop for 20 minutes in the dark and then absorbance of each well was quantified using a spectrophotometer at 620nm wavelength.
(§7) The remaining population of parasites at each concentration of the test compound was determined by comparing the absorbance of each well to the absorbance of a well containing […]
(§8) the drug-free control. […]
(§9) The initial 100 µg/mL solution is serially diluted 10-

[2] = test system: multidrug-resistant (K1) strain of P. falciparum; test: In vitro asexual blood-stage antiplasmodium pLDH assay, K1 strain; format: cell-based; settings: Plasmodium falciparum, 72 h, n ≥ 3, read-out: In vitro antiplasmodium activity IC50 PfK1 strain
Method: as §1, §2, §3, §4, §5, §6, §7, §8, §9

[3] = In vitro cytotoxicity MTT assay; format: cell-based, Chinese hamster; settings: Chinese hamster, Chinese hamster ovarian (CHO) cells; MTT assay
Method: (§10) In vitro cytotoxicity was performed on the Chinese Hamster Ovarian cell line by measuring cellular growth and survival calorimetrically through the MTT assay.[29],[30] The formation of tetrazolium salt was used as a measure of chemosensitivity and growth. (Details of this assay is described in the Supporting Information.) page 19: et al, 1993). The test samples were prepared to a 10 mmol/L stock solution in 100% DMSO. Samples were tested as a suspension if not completely dissolved. Further dilutions to the desired starting concentration were freshly prepared in growth media on each occasion of the experiment. The standard antimalarial drugs chloroquine (CQ) and artesunate (Arts) were used as the reference drug in all experiments. A full dose-response was performed for all compounds […] value). Test samples were tested at a starting concentration of 6mmol/L, which was then serially diluted 2-fold in growth medium to generate the tested concentration range. The same dilution technique was used for all samples. CQ and Arts were tested from a starting concentration of 1μg/mL. The highest concentration of solvent to which the parasites were exposed was <0.1% and has no measurable effect on the parasite viability (data not shown). The assay plate was incubated at 37 °C for 72h in a sealed gas chamber under 3% O2 and 4% CO2 with the balance being N2. After 72h, the wells in the assay plate were gently resuspended, and 15μL from each well was transferred to a duplicate plate containing 100μL of Malstat reagent and 25μL of nitroblue tetrazolium solution in each well. Plates were left to develop for 20 minutes in the dark and then absorbance of each well was quantified using a spectrophotometer at 620nm wavelength. The remaining population of parasites at each concentration of the test compound was determined by comparing the absorbance of each well to the absorbance of a well containing the drug-free control. Survival was plotted against concentration and the IC50 values were obtained using a non-linear dose-response curve fitting analysis via the Dotmatics software platform.2 In vitro Cytotoxicity Assay In vitro cytotoxicity was performed on the Chinese Hamster Ovarian cell line by measuring […] diphenyltetrazolium bromide (MTT) assay.3,4 The formation of tetrazolium salt was used as a measure of chemosensitivity and growth. 2 mg/mL stock solutions of the test compounds were prepared in DMSO and stored at -20 °C until required. The stock solution was subsequently diluted with the assay medium to make up an initial concentration of 100 μg/mL. The initial 100 μg/mL solution is serially diluted 10- S19 page 20: fold to attain six assay concentrations of 100-0.001 μg/mL. […] was used as the reference compound in this assay. The highest concentration of DMSO, which was used as the negative control, had no measurable effect on cell viability. After 44 hours of exposure of the cells to the test compounds, a solution of MTT was added. This was followed by an additional 4 hours of incubation at 37 °C. The assay plates were centrifuged, medium removed, and DMSO was added to the crystals. The amount of formazan was ascertained by measuring the absorbance at 540 nm. GraphPad Prism software was then used to generate IC50 values through a non-linear dose-response curve analysis. β-Hematin Inhibition Assay 20 mM stock solutions of controls and test compounds were made in DMSO. A solution […] was added to every well in columns 1-11 of a 96-well plate. 140 μL of water and 40 μL of 305.5 μM NP-40 were added to column 12 to mediate the formation of beta-hematin. 20 μL of test compounds (20 mM) were added to column 12 and 100 μL of this solution serially diluted to column 2, leaving column 1 blank (0 μM of test compound). 178.8 μL aliquot of hematin stock was suspended in 20 ml of a 1 M acetate buffer at pH 4.9. 100 μL of this hematin suspension was then added into each well, and the plates were incubated for ±5 hrs at 37°C. […]

[4] = test system: Chinese hamster ovarian (CHO) cell line; test: In vitro cytotoxicity MTT assay; format: cell-based; settings: CHO vs PfNF54
Method: as §10

[5] = test system: β-hematin; test: β-Hematin inhibition assay (BHIA), cell-free NP-40 mediated; format: biochemical; settings: mean of n = 3
Method: page 20: fold to attain six assay concentrations of 100-0.001 μg/mL. […] was used as the reference compound in this assay. The highest concentration of DMSO, which was used as the negative control, had no measurable effect on cell viability. After 44 hours of exposure of the cells to the test compounds, a solution of MTT was added. This was followed by an additional 4 hours of incubation at 37 °C. The assay plates were centrifuged, medium removed, and DMSO was added to the crystals. The amount of formazan was ascertained by measuring the absorbance at 540 nm. GraphPad Prism software was then used to generate IC50 values through a non-linear dose-response curve analysis. β-Hematin Inhibition Assay 20 mM stock solutions of controls and test compounds were made in DMSO. A solution […] was added to every well in columns 1-11 of a 96-well plate. 140 μL of water and 40 μL of 305.5 μM NP-40 were added to column 12 to mediate the formation of beta-hematin. 20 μL of test compounds (20 mM) were added to column 12 and 100 μL of this solution serially diluted to column 2, leaving column 1 blank (0 μM of test compound). 178.8 μL aliquot of hematin stock was suspended in 20 ml of a 1 M acetate buffer at pH 4.9. 100 μL of this hematin […] pH 7.4 and 50% pyridine) and 60 μL of acetone were added to all wells. The absorbances of plate wells were recorded at 405 nm on a SpectraMax plate reader. Sigmoidal dose-response curves with variable slopes were fitted to the absorbance data using GraphPad Prism to obtain the IC50 values for each compound. In vitro Microsomal Stability Assay The in vitro microsomal stability assay was performed in duplicate in a 96-well micro titre […] individually in human (pool of 50, mixed gender), rat (pool of 711, male Sprague Dawley) and mouse (pool of 1634, male CD1) liver microsomes (final protein concentration of 0.4 mg/mL; Xenotech, Kansas, USA), suspended in 0.1M phosphate buffer (pH 7.4). Incubations were S20

[6] = Solubility; format: physicochemical; settings: pH 6.5, aqueous buffer
Description: Table 1 In Vitro Antiplasmodium Activity, Cytotoxicity, BHIA, and Solubility | column: Solubility pH 6.5, μM

[7] = NF54, pLDH, 72 h, n ≥ 3, read-out: In vitro antiplasmodium activity IC50 PfNF54 strain

## C[C@H]1[C@H](OC(=O)CCC(=O)O)O[C@@H]2O[C@@]3(C)CC[C@H]4[C@H](C)CC[C@@H]1[C@@]24OO3 [artesunate, reference compound]
[1]; NF54, controls, strain not stated in footnote, read-out: IC50 of controls in pLDH antiplasmodium assay
  IC50: 0.007 µM

## CCN(CCNc1cc2[nH]c(C3CC(F)(F)C3)nc2cn1)Cc1ccc(Cl)cc1O [Compound 10, 5-Chloro-2-(((2-((2-(3,3-difluorocyclobutyl)-1H-imidazo[4,5-c]pyridin-6-yl)amino)ethyl)(ethyl)amino)methyl)phenol]
[1]; [7]
  IC50: 0.86 µM
[2]
  IC50: 5.27 µM
[3]
  IC50 at 44 h: > 50 µM
[4]
  SI (selectivity index) = IC50 CHO/IC50 PfNF54: >58.14
[5]
  IC50: 76 µM
[6]
  solubility: 175 µM (≈ 76.3 µg/mL)

## CCN(CCNc1cc2[nH]c(C3CCCCC3)nc2cn1)Cc1ccc(Cl)cc1O [Compound 11, 5-Chloro-2-(((2-((2-cyclohexyl-1H-imidazo[4,5-c]pyridin-6-yl)amino)ethyl)(ethyl)amino)methyl)phenol]
[1]; [7]
  IC50: 0.69 µM
[2]
  IC50: 2.12 µM
[3]
  IC50 at 44 h: > 50 µM
[4]
  SI (selectivity index) = IC50 CHO/IC50 PfNF54: >72.46
[5]
  IC50: 80 µM
[6]
  solubility: 140 µM (≈ 59.9 µg/mL)

## CCN(CCNc1cc2[nH]c(C3CCCCCC3)nc2cn1)Cc1ccc(Cl)cc1O [Compound 15, 5-Chloro-2-(((2-((2-cycloheptyl-1H-imidazo[4,5-c]pyridin-6-yl)amino)ethyl)(ethyl)amino)methyl)phenol]
[1]; [7]
  IC50: 0.67 µM
[2]
  IC50: 2.48 µM
[3]
  IC50 at 44 h: 50 µM
[4]
  SI (selectivity index) = IC50 CHO/IC50 PfNF54: 74.60
[5]
  IC50: 137 µM
[6]
  solubility: 150 µM (≈ 66.3 µg/mL)

## CCN(CC)CCCC(C)Nc1ccnc2cc(Cl)ccc12 (centres unmarked) [chloroquine, reference compound]
[1]; NF54, read-out: IC50 of controls in pLDH antiplasmodium assay
  IC50: 0.012 µM

## CCN(CCNc1cc2[nH]c([C@H]3CC[C@@H](C(F)(F)F)CC3)nc2cn1)Cc1ccc(Cl)cc1O [Compound 17, 5-Chloro-2-((ethyl(2-((2-((1r,4r)-4-(trifluoromethyl)cyclohexyl)-1H-imidazo[4,5-c]pyridin-6-yl)Amino)ethyl)amino)methyl)phenol]
[1]; [7]
  IC50: 0.95 µM
[2]
  IC50: 1.71 µM
[3]
  IC50 at 44 h: 49.1 µM
[4]
  SI (selectivity index) = IC50 CHO/IC50 PfNF54: 51.68
[5]
  IC50: 239 µM
[6]
  solubility: 135 µM (≈ 67 µg/mL)

## CCN(CCNc1cc2[nH]c(C)nc2cn1)Cc1ccc(Cl)cc1O [Compound 4, 5-Chloro-2-((ethyl(2-((2-methyl-1H-imidazo[4,5-c]pyridin-6-yl)amino)ethyl)amino)methyl)phenol]
[1]; [7]
  IC50: 2.53 µM
[2]
  IC50: 4.11 µM
[3]
  IC50 at 44 h: > 50 µM
[4]
  SI (selectivity index) = IC50 CHO/IC50 PfNF54: >19.76
[5]
  IC50: 257 µM
[6]
  solubility: 135 µM (≈ 48.6 µg/mL)

## CCN(CCNc1cc2[nH]c(C3CCOC3)nc2cn1)Cc1ccc(Cl)cc1O (centres unmarked) [Compound 2, 5-Chloro-2-((ethyl(2-((2-(tetrahydrofuran-3-yl)-1H-imidazo[4,5-c]pyridin-6-yl)amino)ethyl)amino)methyl)phenol]
[1]; [7]
  IC50: 1.67 µM
[2]
  IC50: 1.61 µM
[3]
  IC50 at 44 h: > 50 µM
[4]
  SI (selectivity index) = IC50 CHO/IC50 PfNF54: >29.94
[5]
  IC50: 225 µM
[6]
  solubility: 125 µM (≈ 52 µg/mL)

## CCN(CCNc1cc2[nH]c(C3CCCN3C)nc2cn1)Cc1ccc(Cl)cc1O (centres unmarked) [Compound 13, 5-Chloro-2-((ethyl(2-((2-(1-methylpyrrolidin-2-yl)-1H-imidazo[4,5-c]pyridin-6-yl)amino)ethyl)amino)methyl)phenol]
[1]; [7]
  IC50: 1.03 µM
[2]
  IC50: 3.9 µM
[3]
  IC50 at 44 h: > 50 µM
[4]
  SI (selectivity index) = IC50 CHO/IC50 PfNF54: >48.54
[5]
  IC50: 285 µM
[6]
  solubility: 175 µM (≈ 75.1 µg/mL)

## O=[N+]([O-])c1ccc(NCCN(CCNc2cc3[nH]c(-c4cccc(C(F)(F)F)c4)nc3cn2)Cc2ccc(Cl)cc2O)c2nonc12 [Compound 14-NBD, 5-Chloro-2-(((2-((7-nitrobenzo[c][1,2,5]oxadiazol-4-yl)amino)ethyl)(2-((2-(3-(trifluoromethyl)phenyl)-1H-imidazo[4,5-c]pyridin-6-yl)amino)ethyl)amino)methyl)phenol]
[1]; [7]
  IC50: 0.049 µM

## CCN(CCNc1cc2[nH]c(C3CCC(F)(F)CC3)nc2cn1)Cc1ccc(Cl)cc1O [Compound 12, 5-Chloro-2-(((2-((2-(4,4-difluorocyclohexyl)-1H-imidazo[4,5-c]pyridin-6-yl)amino)ethyl)(ethyl)amino)methyl)phenol]
[1]; [7]
  IC50: 0.93 µM
[2]
  IC50: 3.68 µM
[3]
  IC50 at 44 h: > 50 µM
[5]
  IC50: 31 µM
[6]
  solubility: < 5 µM
